This series is described as follows: gradient 5% acetonitrile 3 min, to 50% in 2 min, to 85% in 15 min, held 3 min, 100 µL/min. The conditions noted are these: column: Zorbax Extend-C18 2.1 x 50 mm; eluents: water / acetonitrile, 0.1% formic acid. The procedure, abridged: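 Retention times of pure standards were taken from adduct peaks that were selected by computer and manually inspected. Over 3 months, mixtures of ~100 molecules were run by HPLC–quadrupole time-of-flight mass spectrometry in positive and negative ionization mode. The Zorbax Extend-C18 column (2.1 × 50 mm, 1.8 μm) ran at 100 μL/min in water and acetonitrile, each containing 0.1% formic acid, with 40 μL dead volume and 900 μL dwell volume.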
`CCn1nc(C(=O)NCCn2nc(C)cc2C)ccc1=O`: the RP-LC retention time was 578 s.

Compound `CCc1ccccc1N1C(=O)CN(S(C)(=O)=O)CC1(C)C(=O)NCc1ccc(F)cc1` (stereo unspecified) gave an RP-LC retention time of 830 s.

Take `COc1ccc(C)cc1NC(=O)C1CCCN(C(=O)C2Sc3ccccc3NC2=O)C1` (stereo unspecified): the RP-LC retention time was determined as 852 s.

Take `O=C(Nc1cnccn1)c1ccc(S(=O)(=O)N2CCCCCC2)cc1`: the RP-LC retention time came out at 766 s.

The compound `CC(C)c1cc(C2NNC(=O)N2c2ccc3c(ccn3C)c2)c(O)cc1O` (stereo unspecified) had an RP-LC retention time of 796 s.

Consider `CSc1ccc(-c2nc3cccc(C)n3c2Nc2ccccc2C)cc1`, for which the RP-LC retention time amounted to 808 s.

In the case of `COc1ccc(C(=O)NC2(c3nc(C)no3)CCCCC2)cc1F`, the RP-LC retention time is 854 s.

`Cc1ccc(S(=O)(=O)N2CCC(C)(C(=O)NCc3ccc(F)cc3)CC2)cc1` displayed an RP-LC retention time of 942 s.

In the case of `COc1ccc(CNC(=O)c2nsc(C(=O)NCCc3ccc(OC)c(OC)c3)c2N)cc1`, the RP-LC retention time amounted to 922 s.

Compound `CCCCc1cc(=O)oc2cc(C)cc(OCC(=O)N3CCC4(O)CCCCC4C3)c12` (stereo unspecified) returned an RP-LC retention time of 933 s.

`CNC(=O)c1ccc(-c2nc3cc(NS(=O)(=O)c4cc(C)c(C)cc4C)ccc3n2C)cc1` yielded an RP-LC retention time of 713 s.

For `Cn1cnc(-c2cc3nccc(Oc4ccc(NC(=S)NC(=O)Cc5ccccc5)cc4F)c3s2)c1`, the RP-LC retention time stood at 862 s.

In turn, `CCC(C)NS(=O)(=O)c1cc(-c2nnc(-c3ccc(OC)c(OC)c3)o2)ccc1C` (stereo unspecified) gave an RP-LC retention time of 938 s.

Compound `O=C(NCCC1=CCCCC1)C1CCN(C(=O)c2cccn2-c2cccnc2)CC1` had an RP-LC retention time of 1090 s.

Regarding `O=C(NCC1CCCO1)c1ccc2ncnc(N3CCCC3)c2c1` (stereo unspecified), the RP-LC retention time came out at 575 s.

`COc1cc(C(C)=O)ccc1OC(=O)c1cc2c(C)nn(-c3ccccc3)c2s1`: the RP-LC retention time was determined as 1190 s.

`COc1ccc(C2Cn3cnc(-c4nc(-c5ccc(OC)cc5OC)no4)c3CO2)cc1` (stereo unspecified) gave an RP-LC retention time of 912 s.

Compound `O=C(c1cnccn1)N1CCN(c2nc(-c3ccc(Cl)cc3)no2)CC1` returned an RP-LC retention time of 828 s.

For `Cc1ccc(-c2nnc(Cc3nc(C(C)C)no3)o2)cc1C`, the RP-LC retention time came to 967 s.

`Cc1ccccc1Oc1nccn2c(=O)n(CC(=O)Nc3ccc(Cl)c(Cl)c3)nc12` had an RP-LC retention time of 996 s.

Compound `CC(CC(=O)Nc1ccccc1Cl)S(=O)(=O)c1ccc2c(c1)NC(=O)CCS2` (stereo unspecified) had an RP-LC retention time of 761 s.

Turning to `Cc1ccc(C)c(NC(=O)N2CCC(N3CCN(Cc4ccccc4)C(=O)C3=O)CC2)c1`, the RP-LC retention time came to 740 s.

In turn, `O=C(NC1CCN(c2cc(-c3ccc(F)cc3)[nH]n2)C1)c1ccc2cc[nH]c2c1` (stereo unspecified) gave an RP-LC retention time of 714 s.

As to `Cc1nc(C)c(C(=O)NCCn2c(C)cnc2C2CCC2)s1`, the RP-LC retention time worked out at 570 s.

In turn, `COc1ccc(NC(=O)Cn2nc3cc(-c4ccc(OC)cc4)nc(C)n3c2=O)cc1` had an RP-LC retention time of 872 s.

On to `CC(=O)Nc1ccc(-c2noc(C3CCCN(C(=O)CCc4c[nH]c5ccccc45)C3)n2)cc1` (stereo unspecified), for which the RP-LC retention time stood at 798 s.

The compound `CCc1cc(C(=O)N2CCN(C3CCN(C)CC3)CC2)nc2cc(-c3ccccn3)nn12` came in with an RP-LC retention time of 562 s.

For `O=C1Nc2cc(C(=O)N3CCN(c4ccc(Cl)cc4)CC3)ccc2N2CCCCC12` (stereo unspecified), the RP-LC retention time was 638 s.

As for `COc1cccc(NC(=O)N2CCC3(CC2)N=C(c2cccc(Cl)c2)C(=O)N3)c1`, the RP-LC retention time is 878 s.

On to `Cc1ccc(-c2nc(C(=O)N(C)C)c3n2CCCCC3)cc1`, for which the RP-LC retention time turned out to be 640 s.

For the compound `COc1ccc(CNC(=O)C2CCN(c3ccc(SCc4ccccc4)nn3)CC2)cc1OC`, the RP-LC retention time was found to be 704 s.
